The values below come from US20090233938A1, “Thiazole derivatives as a2b antagonists” (priority 2004, published 2009).

The first data set deals with T1, human adenosine A2b receptor (Homo sapiens, UniProt P29275).
T1 construct: expressed in transfected cells; host or cells: CHO cells co-transfected with reporter plasmid pCRE-LUCI and pA2bRCV
T1 sequence (P29275 1-332): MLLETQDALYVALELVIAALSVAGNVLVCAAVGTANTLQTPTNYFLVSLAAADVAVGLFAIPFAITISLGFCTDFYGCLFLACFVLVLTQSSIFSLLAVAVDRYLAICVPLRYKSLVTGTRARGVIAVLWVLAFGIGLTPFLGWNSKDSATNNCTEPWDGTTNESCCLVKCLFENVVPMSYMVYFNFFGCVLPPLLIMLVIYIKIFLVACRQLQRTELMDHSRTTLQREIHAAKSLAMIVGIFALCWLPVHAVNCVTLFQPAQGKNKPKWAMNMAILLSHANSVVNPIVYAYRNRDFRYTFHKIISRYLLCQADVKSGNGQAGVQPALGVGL
The data set is described as follows: Adenosine A2b receptor reporter gene assay (luciferase, CHO-A2b cells, NECA agonist). The settings on record: CHO cells with pCRE-LUCI and human A2b receptor; antagonist at 100 nM or 1 μM; shift of NECA concentration-response curve; KB=[antagonist]/(concentration ratio−1). The data set is classed as cell-based. As to the method:
Adenosine A2b Receptor Reporter Gene Assay a) Culturing of Chinese Hamster Ovary (CHO) A2b Cell Line
CHO cells transfected with a Luciferase-expressing reporter plasmid (pCRE-LUCI) and with a plasmid carrying the human adenosine A2b receptor structural gene (pA2bRCV) are routinely cultured in Dulbecco's Modified Eagle Medium (DMEM)—supplemented with 10% v/v fetal calf serum (FCS), 2 mM L-glutamine, 0.4 mg/ml L-proline, 1 nM sodium selenite, 0.5 mg/ml Hygromycin B and 1 mg/ml Geneticin—at 37° C., 5% CO2 and 100% humidity. The cells are left to grow to confluence for 4-5 days. The cells obtained are passaged using trypsin/EDTA and split at a ratio of 1 in 5. […]
b) Preparation of Cells for Assay
Prior to the assay, the CHO-A2b cells are plated onto white 96-well View Plate tissue culture plates (Packard) at a density of 50,000 cells per well in 50 μl of DMEM, and the plates are incubated at 37° C., 5% CO2 and 100% humidity. […]
c) Preparation of Reference and Test Compounds
10 mM solutions of the reference compound, Xanthine Amine Cogener (XAC), and the test compound in dimethyl sulfoxide (DMSO) are prepared. The solutions are further diluted with DMSO to 100 μM, then diluted to 10 μM, and finally to 250 nM or 2.5 μM with Assay Buffer (DMEM Phenol Red-free tissue culture media supplemented with 10 μM Rolipram and 10 U/ml adenosine deaminase (ADA). The resulting solutions (40 μl) are added to the cells in the appropriate wells, the final concentration per well being 100 nM or 1 μM, and the plates are incubated at 37° C., 5% CO2 and 100% humidity. […]
d) Luciferase Reporter Gene Assay
5′-N-ethylcarboxamidoadenosine (NECA), an adenosine A2b agonist, is prepared as a […] solution in DMSO and then diluted to 100 μM with Assay Buffer. This solution is serially diluted in Assay Buffer to give a series of 10 NECA concentrations from 100 to 0.01 μM. 10 μl portions of the resulting NECA solutions are added to the mixtures of CHO-A2b cells and reference or test compound solutions prepared as described above (preincubated for 30 minutes), final concentrations ranging from […] per well. The cells are incubated at 37° C., 5% CO2 and 100% humidity for 3 hours to induce release of cAMP, which then binds to cAMP binding protein (CBP) and the resulting complex interacts with the reporter plasmid to express Luciferase. 100 μl of Steady-Glo, a Luciferase assay substrate from Promega, is added to all wells to lyse the cells and generate luminescence in proportion to the amount of Lucifrease produced. The plates are left for a minimum of 5 minutes before being read on the luminescence program of a Topcount NXT microplate scintillation counter (ex Packard). Concentration—response curves are plotted from the luminescence data using Activity base software and KB values for the antagonists under test are calculated from the shifts of the curve at a particular concentration (KB=[antagonist]/(concentration ratio−1)
Background: In a reporter assay the amount or activity of a reporter protein is the signal.
In general, Kb refers to the equilibrium dissociation constant of an antagonist, usually derived from a functional assay. Consider `N#Cc1cccc(-c2nc(Nc3cnccn3)sc2-c2ccncn2)c1` [Example 12, 3-[2-(Pyrazin-2-ylamino)-5-pyrimidin-4-yl-thiazol-4-yl]-benzonitrile], for which the antagonist dissociation constant (Kb) stood at 2 nM.
Same read-out and setting: in the case of `Cc1ccnc(Nc2nc(-c3cccc(C#N)c3)c(-c3ccncn3)s2)c1` [Example 4] it was 38 nM.
Still for that read-out and setting: with `N#Cc1cccc(-c2nc(Nc3ccccn3)sc2-c2ccncn2)c1` [Example 9] the figure was 6 nM.
Regarding `N#Cc1cccc(Nc2nc(-c3cccc(C#N)c3)c(-c3ccncn3)s2)c1` [Example 6], the Kb was determined as 29 nM.
On the same count and under the same terms, in the case of `CN(C)c1cc(-c2sc(Nc3cccc(F)c3)nc2-c2cccc(C#N)c2)cnn1` [Example 16] it was 50 nM.

Tested on in the next data set: not given
Assay: not given
Conditions: not given
For orientation: melting point means the temperature of the solid-liquid transition. `N#Cc1cccc(-c2nc(Nc3ccc(C(=O)O)cc3)sc2-c2ccnnc2)c1` [Example 15, 4-[4-(3-Cyano-phenyl)-5-pyridazin-4-yl-thiazol-2-ylamino]-benzoic acid]: the melting point was over 275 °C.
`N#Cc1cccc(-c2nc(Nc3cnccn3)sc2-c2ccncn2)c1` [Example 12, 3-[2-(Pyrazin-2-ylamino)-5-pyrimidin-4-yl-thiazol-4-yl]-benzonitrile]: the melting point was over 280 °C.
Still for that read-out and setting: in the case of `COc1cccc(C(=O)Nc2nc(-c3cccc(C#N)c3)c(-c3ccncn3)s2)c1` [Example 11, N-[4-(3-Cyano-phenyl)-5-pyrimidin-4-yl-thiazol-2-yl]-3-methoxy-benzamide] it was 255 to 256 °C.
